In patent US20070244190A1, “Neobritannilactone B and acetyl neobritannilactone B” (priority 2006, published 2007):
Like-named read-outs stand apart in the source and are kept apart here.

Legend:
COLO 205 cells [1] = experiment: Cell viability, trypan blue exclusion, 24 h; type: cell-based; settings: COLO 205, 24 h, mean ± SE, n=3, read-out: IC50, growth of human cancer cells
Experimental: (§1) Cell Culture and Chemicals. The COLO 205 and HT 29 cell lines were isolated from human colon adenocarcinoma (ATCC CCL-222 and HTB-38); human promyelocytic leukemia (HL-60) cells were obtained from American Type Culture Collection (Rockville, Md.). The human AGS gastric carcinoma cell lines (CCRC 60102) were obtained from the Food Industry Research and Development Institute (Hsinchu, Taiwan). Cell lines were grown at 37° C. in 5% CO2 dioxide atmosphere in RPMI for COLO 205, HT-29, and HL-60 cells and DMEM/F12 for AGS cells, all supplemented with 10% heat-inactivated fetal bovine serum (GIBCO BRL, Grand Island, N.Y.) (100 units/mL of penicillin, 100 μg/mL of streptomycin), and 2 mM L-glutamine (GIBCO BRL). Selected compounds were dissolved in dimethyl sulfoxide (DMSO). Propidium iodide was obtained from Sigma Chemical Co. (St. Louis, Mo.).
(§2) Determination of Cell Viability. Human cancer cells were treated either with DMSO (0.01%) or the selected compounds (5-100 μM). Cell viability was determined at 24 h based on trypan blue exclusion assay. The viability percentage was calculated based on the percentage of unstained cells. Suspensions of cells were diluted 1:1 with 0.5% trypan blue solution. Stained and unstained cells were counted in a hemocytometer.

HL-60 cells [2] = experiment: Cell viability, trypan blue exclusion, 24 h; type: cell-based; settings: HL-60, 24 h, mean ± SE, n=3, read-out: IC50, growth of human cancer cells
Experimental: as §1, §2

HT-29 cells [3] = experiment: Cell viability, trypan blue exclusion, 24 h; type: cell-based; settings: HT-29, 24 h, mean ± SE, n=3, read-out: IC50, growth of human cancer cells
Experimental: as §1, §2

AGS cells [4] = experiment: Cell viability, trypan blue exclusion, 24 h; type: cell-based; settings: mean ± SE, n=3, read-out: IC50, growth of human cancer cells
Experimental: as §1, §2

COLO 205 cells [5] = experiment: Apoptosis (sub-G1) by flow cytometry; type: cell-based, human; settings: 24 h, mean ± SE
Experimental: as §1
(§3) Flow Cytometry. Human cancer cells (2×10^5) were cultured in 60-mm Petri dishes and incubated for 24 h. The apoptotic cells (sub-G1) in the selected compounds and treated cells were measured by flow cytometry analysis. Then cells were harvested, washed with PBS, resuspended in 200 μL of PBS, and fixed in 800 μL of iced 100% ethanol at −20° C. After being left to stand overnight, the cell pellets were collected by centrifugation, resuspended in 1 mL of hypotonic buffer (0.5% Triton X-100 in PBS and 0.5 μg/mL RNase), and incubated at 37° C. for 30 min. Then 1 mL of propidium iodide solution (50 μg/mL) was added and the mixture was allowed to stand on ice for 30 min. Fluorescence emitted from the propidium iodide-DNA complex was quantitated after excitation of the fluorescent dye by FACScan cytometry (Becton Dickinson, San Jose, Calif.).
(§4) The compounds isolated from Inula were tested for their effects on the apoptotic ratio in human cancer cells.

HL-60 cells [6] = experiment: Apoptosis (sub-G1) by flow cytometry; type: cell-based, human; settings: 24 h, mean ± SE
Experimental: as §1, §3, §4

HT-29 cells [7] = experiment: Apoptosis (sub-G1) by flow cytometry; type: cell-based, human; settings: 24 h, mean ± SE
Experimental: as §1, §3, §4

AGS cells [8] = experiment: Apoptosis (sub-G1) by flow cytometry; type: cell-based, human; settings: 24 h, mean ± SE
Experimental: as §1, §3, §4

SMILES	apoptotic ratio (COLO 205 cells [5]; COLO 205, 5 μM)	apoptotic ratio (COLO 205 cells [5]; COLO 205, 10 μM)	apoptotic ratio (COLO 205 cells [5]; COLO 205, 25 μM)	apoptotic ratio (COLO 205 cells [5]; COLO 205, 50 μM)	apoptotic ratio (COLO 205 cells [5]; COLO 205, 100 μM) [%]	apoptotic ratio (HL-60 cells [6]; HL-60, 5 μM)	apoptotic ratio (HL-60 cells [6]; HL-60, 10 μM) [%]	apoptotic ratio (HL-60 cells [6]; HL-60, 25 μM) [%]	apoptotic ratio (HL-60 cells [6]; HL-60, 50 μM) [%]	apoptotic ratio (HL-60 cells [6]; HL-60, 100 μM)	apoptotic ratio (HT-29 cells [7]; HT-29, 5 μM) [%]	apoptotic ratio (HT-29 cells [7]; HT-29, 10 μM) [%]	apoptotic ratio (HT-29 cells [7]; HT-29, 25 μM)	apoptotic ratio (HT-29 cells [7]; HT-29, 50 μM) [%]	apoptotic ratio (HT-29 cells [7]; HT-29, 100 μM)	apoptotic ratio (AGS cells [8]; 5 μM)	apoptotic ratio (AGS cells [8]; 10 μM) [%]	apoptotic ratio (AGS cells [8]; 25 μM)	apoptotic ratio (AGS cells [8]; 50 μM)	apoptotic ratio (AGS cells [8]; 100 μM)	also measured
CC(=O)OCCC[C@H](C)C1=C[C@@H]2[C@H](C)C(=O)O[C@@H]2C[C@@]1(C)O [Compound 2, neobritannilactone A]	4.08 ± 0.21%	6.51 ± 2.28%	4.28 ± .93%	5.44 ± 0.47%	25.50 ± 3.46	6.68 ± 1.51%	6.31 ± 0.98	6.19 ± 0.01	6.63 ± 2.21	16.31 ± 1.63%	3.94 ± 1.05	4.24 ± 0.24	5.17 ± 1.70%	4.09 ± 0.77	7.73 ± 3.22%	9.23 ± 0.22%	9.83 ± 2.27	10.57 ± 2.11%	9.41 ± 2.83%	9.81 ± 2.30%	IC50 (COLO 205 cells [1]): 97.9 ± 1.16 µM; IC50 (HL-60 cells [2]): 85.8 ± 4.97 µM; IC50 (HT-29 cells [3]): > 100 µM; IC50 (AGS cells [4]): > 100 µM
C=C1C(=O)OC2CC(C)=C(C(C)CCCO)C(OC(=O)C(C)CC)C12 (stereo not drawn) [Compound 1, 6β-O-(2-methylbutyryl)-britannilactone]	5.33 ± 0.78%	5.86 ± 0.32%	15.20 ± 1.02%	27.21 ± 5.51%	36.24 ± 0.76	6.41 ± 0.79%	5.36 ± 0.61	10.53 ± 3.34	28.60 ± 2.67	27.05 ± 0.54%	4.24 ± 0.40	3.68 ± 0.47	3.93 ± 0.16%	5.16 ± 0.93	6.40 ± 0.28%	10.89 ± 1.69%	11.38 ± 1.12	17.76 ± 0.76%	28.48 ± 1.20%	27.10 ± 0.54%	IC50 (COLO 205 cells [1]): 58.7 ± 1.32 µM; IC50 (HL-60 cells [2]): 47.1 ± 1.55 µM; IC50 (HT-29 cells [3]): 48.1 ± 2.26 µM; IC50 (AGS cells [4]): 31.3 ± 1.8 µM
C=C1C(=O)OC2CC(C)=C(C(C)CCCOC(C)=O)C(OC(C)=O)C12 (stereo not drawn) [Compound 7, 1,6-O,O-diacetylbritannilactone]	6.94 ± .33%	8.69 ± 1.65%	26.95 ± 0.30%	15.44 ± .08%	17.82 ± 2.26	6.14 ± .20%	8.67 ± 2.06	21.13 ± 0.37	27.02 ± 2.69	22.24 ± 1.06%	11.19 ± 3.98	11.15 ± 2.84	11.50 ± .92%	13.08 ± 0.63	20.88 ± .09%	7.49 ± .88%	5.79 ± 0.64	11.29 ± 2.16%	10.79 ± 2.79%	8.12 ± .26%	IC50 (COLO 205 cells [1]): 56.7 ± 3.66 µM; IC50 (HL-60 cells [2]): 35.3 ± 0.44 µM; IC50 (HT-29 cells [3]): 76.6 ± 5.5 µM; IC50 (AGS cells [4]): 66.4 ± 6.29 µM
C=C1C(=O)O[C@@H]2CC(C)=C([C@@H](C)CCCO)[C@H](O)[C@H]12 [Compound 5, britannilactone]	11.90 ± 3.61%	12.28 ± 5.24%	12.79 ± 1.84%	15.54 ± 2.14%	28.31 ± 1.89	7.22 ± 1.54%	5.64 ± 2.00	5.24 ± 0.67	8.01 ± 1.34	12.83 ± .06%	5.75 ± 1.77	6.16 ± 1.23	6.49 ± 1.07%	6.59 ± 0.54	7.55 ± .08%	7.93 ± 1.71%	10.37 ± 0.98	10.16 ± .28%	8.97 ± 0.66%	10.37 ± 0.66%	IC50 (COLO 205 cells [1]; Homo sapiens): > 100 µM; IC50 (HL-60 cells [2]; Homo sapiens): > 100 µM; IC50 (HT-29 cells [3]; Homo sapiens): > 100 µM; IC50 (AGS cells [4]; Homo sapiens): > 100 µM
C=C1C(=O)OC2CC(C)=C(C(C)CCCOC(C)=O)C(O)C12 (stereo not drawn) [Compound 6, 1-O-acetylbritannilactone]	13.44 ± .25%	11.32 ± .421%	16.48 ± 3.75%	16.59 ± 0.71%	35.79 ± 1.36	4.05 ± 0.31%	7.26 ± 2.15	4.37 ± 0.57	5.69 ± 0.60	22.19 ± 4.14%	5.36 ± 1.80	6.81 ± 2.14	11.68 ± 3.02%	9.26 ± 1.80	14.87 ± .90%	15.37 ± 6.22%	17.28 ± 2.29	14.66 ± 1.38%	14.84 ± .58%	18.85 ± .68%	IC50 (COLO 205 cells [1]): > 100 µM; IC50 (HL-60 cells [2]): > 100 µM; IC50 (HT-29 cells [3]): 96 ± 12.5 µM; IC50 (AGS cells [4]): > 100 µM
